Reference: PubChem BioAssay (NCI)
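Five compound concentrations were applied to cells in 96-well plates for 48 hours; endpoints were derived by simple linear interpolation of the resulting dose-response curve. At the TGI there is no net growth.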

Test system: P388/ADR leukemia
Assay: NCI tumour cell line growth inhibition, 48 h

SMILES: CC1[C@@H]2CC=C3[C@H]4CCC5Cc6nc7c(nc6C[C@@]5(C)C4CC(=O)[C@]32CO[C@]12OC(C)(C)CC2O)CC1CC[C@@H]2C3=C[C@H]4O[C@@]5(O[C@@](C)(CO)C[C@@H]5O)C(C)[C@@]4(O)[C@]3(C)[C@@H](O)CC2[C@]1(C)C7 (stereo partly specified)
- TGI: 10.9 nM
